# Measured values taken from US10130585B2, “Methods of treating and/or preventing cardiovascular disease” (Murray and Poole Enterprises Limited, priority 2013, dated 2018).
# How the values were obtained:
# [1] = test system: patients with stable coronary disease; assay: LoDoCo Trial, colchicine 0.5 mg/day added to standard secondary prevention; type: in vivo, human
# Description: This study is described in PCT/AU2013/001261 and is hereby incorporated in its entirety by reference.
# All outcomes were evaluated by an experienced adjudicator blinded to the treatment allocation.
# Patients with a history of bypass surgery were only eligible if they had undergone bypass surgery more than 10 years before, or had angiographic evidence of graft failure or had undergone stenting since their bypass surgery. All patients signed informed consent before randomization.
# The randomization sequence was computer generated, kept concealed from the investigators at all times and was managed by a research assistant who had no involvement in the evaluation or management of study patients. Once the assistant received the consent form, the patients' demographic data were entered into the data base and the investigators and patients were advised in writing of the treatment group to which the patient had been assigned. […] Patients who were intolerant to therapy remained in the study, and were followed in the usual manner and included in the primary intention to treat analysis.
# The drug was dispensed by their usual chemist, and if requested, patients were reimbursed for the cost of these scripts. All other treatments were continued as usual.
# Patient compliance with treatment and outcome data were collected at routine follow up visits and at the time of any unplanned hospital admission. An acute coronary syndrome (ACS) was defined as either (a) Acute Myocardial Infarction (AMI), as evidenced by acute ischemic chest pain associated with a rise in serum troponin above the upper limit of normal or (b) Unstable Angina (UA), as evidenced by a recent acceleration of the patient's angina unassociated with a rise in serum troponin but associated with angiographic evidence of a change in the patient's coronary anatomy. (Unstable Angina Braunwald classification types IB and IIB). The ACS was characterized as being stent-related if there was evidence of significant in-stent stenosis or acute stent thrombosis. Out of Hospital Cardiac Arrest was defined as either a sudden death as evidenced on the patient's death certificate, or a non-fatal out of hospital cardiac arrest, defined as a recovery from sudden collapse associated with documented asystole, ventricular tachycardia or ventricular fibrillation. Noncardioembolic ischemic stroke was defined as CT or MRI proven ischemic stroke adjudged by the treating neurologist as not being due to atrial fibrillation or intracranial hemorrhage.
# The primary efficacy outcome was the composite, ACS, fatal or non-fatal out of hospital cardiac arrest or non-cardio-embolic ischemic stroke. Secondary outcomes were (a) individual components of the primary outcome, and (b) the components of ACS unrelated to stent disease.
# The pre-specified study duration was a minimum follow up of two years in all patients. Accordingly the study was closed on May 31, 2012. During May, all living patients were contacted by phone to collect compliance and outcome data from the last date of follow-up. Final outcome data were available in all patients and no patients were lost to follow up.
# Summary statistics, including mean and standard deviation were calculated for all baseline characteristics by treatment arm. All time to event outcomes were calculated in days by subtracting the date of randomization from either: (1) the date of event or death; or (2) the trial termination date for those patients not experiencing the defined event. […]
# [2] = test system: patients with a first episode of recurrent pericarditis; settings: conventional treatment with aspirin plus colchicine 1.0-2.0 mg first day then 0.5-1.0 mg/d for 6 months; cited from earlier work
smiles,measurement,setting,value
"COc1cc2c(c(OC)c1OC)-c1ccc(OC)c(=O)cc1[C@@H](NC(C)=O)CC2 [colchicine, N[5,6,7,9-tetrahydro-1,2,3,10-tetratmethoxy 9-oxobenzo[a]heptalen-7-yl],(S)-acetamide]","number needed to treat, primary outcome",[1]; colchicine 0.5 mg/day vs control,11
same,patients who died,"[1]; colchicine group (n=282), all of non-cardiac causes",4 patients
same,patients reporting early intolerance due to gastrointestinal side effects,[1]; of 282 randomized to colchicine 0.5 mg/day,11%
same,"patients with events, on-treatment analysis",[1]; patients compliant and tolerant to therapy beyond the first month,4.5%
same,Out of hospital cardiac arrest and non-cardio-embolic ischemic stroke,[1]; treatment group vs control,also reduced in the treatment group
same,"recurrence rate, actuarial rate at 18 months",[2],24.0%
